From US20230310394A1 (THE SECOND XIANGYA HOSPITAL OF CENTRAL SOUTH UNIVERSITY, priority 2020, published 2023)
“And” between values parts separate entries of the source, which are not always exact repeats. Equal entries are not always repeated.

Legend:
Format in all cases: cell-based, Human
[1] = system: HEL^RE (HEL-resistant, ruxolitinib-resistant) cells; assay: Anti-proliferative test, CellTiter-Lumi luminescence method, HEL-resistant model; conditions: for IC50: HEL^RE cells
Method: (§1) HEL (Human erythroleukemia cell line) and drug-resistant HEL cells were cultured in RPMI medium (Gibco) containing 20% heat-inactivated fetal bovine serum (Gibco) and 1% penicillin/streptomycin (Gibco).
(§2) HEL^PE model, namely HEL-persistent model, was constructed by treating HEL blast cells with a high concentration of ruxolitinib that exceeded the IC50 concentration of blast cells by more than 100 times, wherein the concentration of ruxolitinib used herein was 2.0 μM. The culture medium of the cells was changed every two days, the cells that cannot tolerate the high concentration of ruxolitinib died quickly, while the proliferated cells were DTP (drug-tolerant-persisters), and this cell subset was difficult to be killed by antitumor drugs. Stable drug-resistant cells were obtained after 4-6 weeks. Another drug resistance model is HEL^RE, namely the HEL-resistant model, which was constructed by treating blast cells with ruxolitinib from a starting concentration lower than the IC50 concentration of blast cells, slowly increasing to a high concentration to keep the cells from being killed. The starting concentration used herein was 0.1 μM, the drug was added as soon as the cells proliferated, the dosing gradient was 1.25-fold increments, and the final concentration was 2.0 μM. Stable drug-resistant cells were obtained after 4-6 weeks.
(§3) To test the anti-proliferative effect of the inhibitors, the above cell lines were cultured at a 3000 cells/200 μL per well, added with increasing concentrations of the inhibitors (concentration gradient: 0, 1, 2.5, 5, 10, 20 μM), then supplemented with DMSO to an equal volume. 4 parallel replicate groups and 3 blank wells (culture medium wells without cells) were set. After 72 hours, the cell proliferation was detected by a multi-plate reader using CellTiter-Lumi™ luminescence method (Beyotime), and the IC50 was calculated by Graph Pad prism.
(§4) The calculation formula of cell proliferation rate: cell proliferation rate=(Luminescence value of drug-treated group—average Luminescence value of blank wells)/(Luminescence value of DMSO control group—average Luminescence value of blank wells)×100%.
The method to evaluate whether the model is successfully constructed is to compare the IC50 of drug-resistant cells and naive cells, the obtained ratio was the drug-resistance index, and if the ratio was greater than 3, then the model was successfully constructed.

[2] = system: HEL^RE (HEL-resistant, ruxolitinib-resistant) cells; assay: Apoptosis detection by flow cytometry after Annexin V-PI staining, HEL-resistant model; conditions: 24 hours
Description: (§5) Three parallel replicate groups were set up, and the apoptosis of cells was detected by flow cytometry after Annexin V-PI staining.
(§6) The calculation formula of the apoptosis rate: apoptosis rate=ratio of early apoptotic cells (Annexin V+/PI−)+ratio of late apoptotic cells and necrotic cells (Annexin V+/PI+).

[3] = system: HEL cells; assay: Apoptosis detection by flow cytometry after Annexin V-PI staining, HEL cells; conditions: 24 hours
Description: as §5, §6

[4] = system: HEL cells; assay: Anti-proliferative test, CellTiter-Lumi luminescence method, HEL cells; conditions: 72 hours; for average proliferation rate: HEL cells, relative to DMSO control
Method: as §1, §3, §4

[5] = system: HEL^PE (HEL-persistent, ruxolitinib-resistant) cells; assay: Anti-proliferative test, CellTiter-Lumi luminescence method, HEL-persistent model; conditions: for IC50: Homo sapiens, HEL^PE cells, 72 hours
Method: as §1, §2
as §3, with “4 parallel replicate groups and 3 blank wells (culture medium wells without cells) were set.” left out
The calculation formula of cell proliferation rate: cell proliferation rate=(Luminescence value of drug-treated group—average Luminescence value of blank wells)/(Luminescence value of DMSO control group—average Luminescence value of blank wells)×100%. […]

[6] = system: HEL^PE (HEL-persistent, ruxolitinib-resistant) cells; assay: Apoptosis detection by flow cytometry after Annexin V-PI staining, HEL-persistent model; conditions: 24 hours
Description: as §5, §6

Compound | IC50 ([1]; Homo sapiens, 72 h) [µM] | average apoptosis rate ([2]; 2.5 μM) | average apoptosis rate ([2]; 5 μM) | average apoptosis rate ([2]; 10 μM) | average apoptosis rate ([3]; 2.5 μM) | average apoptosis rate ([3]; 5 μM) | average apoptosis rate ([3]; 10 μM) | average proliferation rate ([4]; 1 μM) | average proliferation rate ([4]; 2.5 μM) | average proliferation rate ([4]; 5 μM) | average proliferation rate ([4]; 10 μM) | average proliferation rate ([4]; 20 μM) | IC50 ([1]; 72 hours) [µM] | drug-resistance index ([1]; ratio of IC50 of HEL^RE cells to IC50 of naive HEL cells) | IC50 [5] [µM] | drug-resistance index ([5]; ratio of IC50 of HEL^PE cells to IC50 of naive HEL cells) | average apoptosis rate ([6]; 2.5 μM) [%] | average apoptosis rate ([6]; 5 μM) [%] | average apoptosis rate ([6]; 10 μM) [%] | IC50 ([4]; Homo sapiens, HEL naive cells, mean (95% confidence interval)) [µM]
CNC(=O)c1cc(Oc2ccc(NC(=O)Nc3ccc(Cl)c(C(F)(F)F)c3)c(F)c2)ccn1 [regorafenib] | 0.514 | 9.50% | 12.9% | 14.7% | 4.31% | 7.76% | 10.6% | 84.7% | 57.7% | 32.1% | 17.7% | 1.15% | – | – | – | – | – | – | – | –
N#CC[C@H](C1CCCC1)n1cc(-c2ncnc3[nH]ccc23)cn1 [ruxolitinib, Ruxolitinib] | – | 1.16% and 3.75% | 1.35% and 3.70% | 1.05% and 4.34% | 4.65% and 2.05% | 5.07% and 2.14% | 4.59% and 2.16% | 41.4% and 50.5% | 40.6% and 48.4% | 42.8% and 50.2% | 40.8% and 48.4% | 22.9% and 28.5% | 24.9 | 498 | 25.5 | 510 | 0.920 | 1.11 | 0.740 | 0.05
CNC(=O)c1cc(Oc2ccc(NC(=O)Nc3ccc(Cl)c(C(F)(F)F)c3)cc2)ccn1 [sorafenib] | 3.56 | 1.22% | 5.58% | 18.6% | 5.82% | 10.9% | 16.1% | 80.3% | 72.1% | 40.0% | – | 0.828% | – | – | 2.8 | – | 2.16 | 11.1 | 18.0 | –
